Reference: ChEMBL document CHEMBL1140776, “Parasiticidal 2-alkoxy- and 2-aryloxyiminoalkyl trifluoromethanesulfonanilides” (2008)

Assays:
Assay type in all cases: functional
[1] = test system: Rhipicephalus sanguineus; test: Parasiticidal activity against Rhipicephalus sanguineus assessed as mortality at 10 ug/tick by brown dog tick assay
[2] = test system: Haemonchus contortus; test: Parasiticidal activity against Haemonchus contortus by larval assay
[3] = test system: Rhipicephalus sanguineus; test: Parasiticidal activity against Rhipicephalus sanguineus assessed per tick by brown dog tick assay
[4] = test system: Ctenocephalides felis; test: Parasiticidal activity against Ctenocephalides felis assessed as mortality after 24 hrs by cat flea assay; design: concentration or dose not given beside the values
[5] = test system: Ctenocephalides felis; test: Parasiticidal activity against Ctenocephalides felis by cat flea assay
[6] = test system: Rhipicephalus sanguineus; test: Parasiticidal activity against Rhipicephalus sanguineus assessed as mortality after 24 hrs by brown dog tick assay; design: concentration or dose not given beside the values
[7] = test system: Ctenocephalides felis; test: Parasiticidal activity against Ctenocephalides felis after 8 hrs by cat flea assay; design: concentration or dose not given beside the values
[8] = test system: Haemonchus contortus; test: Parasiticidal activity against avermectin-resistant Haemonchus contortus CAVR by larval assay
[9] = test system: Teladorsagia circumcincta; test: Parasiticidal activity against Ostertagia circumcincta McMaster
[10] = test system: Trichostrongylus colubriformis; test: Parasiticidal activity against Trichostrongylus colubriformis
[11] = test system: Haemonchus contortus; test: Parasiticidal activity against benzimidazole and levamisole-resistant Haemonchus contortus Lawes by larval assay

Structure (SMILES)	LD99 [2] [µM]	Activity [7] [%]	also measured
CC/C(=N\OCC1CCCCC1)c1cc(Cl)ccc1NS(=O)(=O)C(F)(F)F	7	–	Activity [1]: 100%; LD50 [3]: 3.4 µg; Activity [4]: 100%; LC50 [5]: 29 ng/cm2; Activity [6]: 100%
C/C(=N\Oc1ccccc1)c1cc(Cl)ccc1NS(=O)(=O)C(F)(F)F	14	6	–
O=S(=O)(Nc1ccc(Cl)cc1/C=N/OCc1ccc(Cl)cc1Cl)C(F)(F)F	2	12	–
CC/C(=N\OCc1ccc(Cl)cc1Cl)c1cc(Cl)ccc1NS(=O)(=O)C(F)(F)F	0.84	94	–
CC(C)/C(=N\OCc1ccc(C(F)(F)F)cc1)c1cc(Cl)ccc1NS(=O)(=O)C(F)(F)F	2.6	12	–
CC/C(=N\OCc1ccc(C(F)(F)F)cc1C(F)(F)F)c1cc(Cl)ccc1NS(=O)(=O)C(F)(F)F	0.56	100	LC50 [5]: 19 ng/cm2; Activity [6]: 88%
CC(C)/C(=N\OCc1ccc(C(F)(F)F)cc1C(F)(F)F)c1cc(Cl)ccc1NS(=O)(=O)C(F)(F)F	1.5	10	–
O=S(=O)(Nc1ccc(Cl)cc1/C=N/OCc1ccc(C(F)(F)F)cc1C(F)(F)F)C(F)(F)F	0.59	10	–
CC/C(=N\OCc1ccc(F)cc1F)c1cc(Cl)ccc1NS(=O)(=O)C(F)(F)F	7.2	95	–
C/C(=N\OCc1ccc(C(F)(F)F)cc1C(F)(F)F)c1cc(Cl)ccc1NS(=O)(=O)C(F)(F)F	0.22	2	LD99 [8]: 0.53 µM; LD99 [9]: 1.1 µM; LD99 [10]: 2.2 µM; LD99 [11]: 0.53 µM
O=S(=O)(Nc1ccc(Cl)cc1/C(=N/OCc1ccc(C(F)(F)F)cc1C(F)(F)F)c1ccccc1)C(F)(F)F	3.1	21	–
CCC/C(=N\OCc1ccc(C(F)(F)F)cc1)c1cc(Cl)ccc1NS(=O)(=O)C(F)(F)F	3.2	36	–
CCO/N=C(\C)c1cc(Br)ccc1NS(=O)(=O)C(F)(F)F	>13	–	LD50 [3]: 1.2 µg; Activity [4]: 100%; LC50 [5]: 11 ng/cm2; Activity [6]: 100%
CCC/C(=N\OCc1ccc(C(F)(F)F)cc1C(F)(F)F)c1cc(Cl)ccc1NS(=O)(=O)C(F)(F)F	2.5	79	–
CC/C(=N\OCc1ccc(C(C)(C)C)cc1)c1cc(Cl)ccc1NS(=O)(=O)C(F)(F)F	6.9	8	–
